# Where a SMILES comes first, the peptide text is derived from it. [ ]: non-standard residue; d: D form. N(1S-Me-propyl)Gly = CC[C@H](C)NCC(=O)O; Nspe = C[C@H](NCC(=O)O)c1ccccc1; Nlys = NCCCCNCC(=O)O
# Key:
# RAGE [1] = assay: Reversal of LPS-induced RAGE expression in previously stimulated THP-1 macrophages (confocal imaging); assay type: cell-based, human; details: additional 24 h, vs LPS alone
# Experimental: THP-1 monocytes were differentiated as described above 20. Upon differentiation, these cells were then incubated (48 h) with media containing low-dose (2 ng/mL) LPS as a chronic pro-inflammatory stimulus 21. Following incubation, JPT1a or JPT1 was added for final concentrations of 25, 5, and 1 μM 22, and cells were incubated an additional 24 h. Treatment with 2 ng/mL LPS alone served as a positive control, while treatment with an equivalent volume of buffer diluted into media served as the vehicle. Media was collected for later assessment of cytokines via ELISA as described above 23. Cells were fixed and stained for RAGE, phalloidin (cytoplasmic marker), and DAPI (nuclear marker) 24. […] 25 All multi-channel images were converted to TIFF file format via ImageJ64 software for quantitative image analysis using a custom subroutine written in Matlab™ software to obtain the average RAGE expression per volume of cells, and the data generated was assessed for statistical significance using GraphPad Prism 7.0 software 26.
# After 48 hours, half of the supernatant was removed, treated with JPT1a (dashed-grey) at final concentrations of 25, 5, 1, and 0 μM (positive control), and then added back to respective samples. […] Images were analyzed via custom MATLAB™ subroutine to determine the average quantity of RAGE present within a given volume of cells. […]
# RAGE [2] = target: T1, RAGE (Homo sapiens, UniProt Q15109); assay: Binding affinity for RAGE from binding equilibrium attained in solution (competition ELISA); details: 20 nM RAGE, JPT1a 0 to 1000 nM, overnight
# Experimental: Definitive binding affinity of JPT1a for RAGE was determined from binding equilibrium attained in solution. As shown in FIGS. 8A-8B, 96-well plates coated with 500 nM JPT1a were treated with overnight incubations containing 20 nM RAGE and JPT1a in concentrations ranging from 0 nM to 1000 nM. Absorbance values were used to calculate relative [RAGE]bound and [RAGE]free via the […] (Friguet B, Chaffotte A F, Djavadi-Ohaniance L, Goldberg M E. Measurements of the true affinity constant in solution of antigen-antibody complexes by enzyme-linked immunosorbent assay. J Immunol Methods. 1985; 77(2):305-319; Rath S, Stanley C M. An inhibition enzyme immunoassay for estimating relative antibody affinity and affinity heterogeneity. 1988; 106:245-249; Newton P, Harrison P, Clulow S. A Novel Method for Determination of the Affinity of Protein: Protein Interactions in Homogeneous Assays. 2008:674-682). FIG. 8A. […] Black dashed lines indicate 95% confidence interval, and gray dashed lines indicate 95% prediction interval, n=4. FIG. 8B. […] Dashed lines indicate 95% confidence interval, n=3.
# IL-8 = IL-8 in supernatant of THP-1 macrophages co-incubated with peptoid and LPS (ELISA); assay type: cell-based, human; details: 3 days, vs LPS alone
# Experimental: THP-1 monocytes were differentiated into macrophages through exposure to phorbol 12-myristate 13-acetate (PMA) for three days prior to experimentation 10. […] Upon differentiation, these cells were then incubated (3 days) with media containing JPT1a (50, 10, or 2 μM) alone or JPT1a (50, 10, or 2 μM) in the presence of low-dose (2 ng/mL) lipopolysaccharide (LPS) as a chronic pro-inflammatory stimulus 11. Treatment with 2 ng/mL LPS alone served as a positive control, while treatment with an equivalent volume of buffer diluted into media served as the vehicle. Cellular supernatant was harvested on day 3 12; these samples were immediately centrifuged at 1200 rpm for 10 min at 25° C. to remove any cells or debris. […] All multi-channel images were converted to TIFF file format via ImageJ64 software for quantitative image analysis using a custom subroutine written in Matlab™ software to obtain the average RAGE expression per volume of cells, and the data generated was assessed for statistical significance using GraphPad Prism 7.0 software 15.
# As shown in FIGS. 2B-2D, THP-1 macrophages were treated with JPT1a alone (white) or in the presence of a chronic low-dose (2 ng/mL) of LPS (grey), for 3 days prior to supernatant harvest and storage. Examination of the supernatant via ELISA determined the concentrations of (FIG. 2B) IL-1β, (FIG. 2C) IL-6, and (FIG. 2D) IL-8. […]
# RAGE [3] = target: T1, RAGE; assay: RAGE binding to peptoid-coated 96-well plates, Scatchard plot; details: plates coated with 500 nM peptoid; JPT1a n=3 average, JPT1 n=1
# Experimental: As shown in FIGS. 7A-7D, 96-well plates coated with 500 nM JPT1a were treated with concentrations of RAGE (FIG. 7A) or E-cadherin (FIG. 7B) ranging from 1 to 500 nM. Values are reported as the average concentration of bound protein determined from all experiments. Error bars indicate SEM, n=2-5. […] In FIG. 7D, 96-well plates coated with 500 nM JPT1 were treated with concentrations of RAGE ranging from 1 to 350 nM.
# T1 sequence (Q15109 23-404): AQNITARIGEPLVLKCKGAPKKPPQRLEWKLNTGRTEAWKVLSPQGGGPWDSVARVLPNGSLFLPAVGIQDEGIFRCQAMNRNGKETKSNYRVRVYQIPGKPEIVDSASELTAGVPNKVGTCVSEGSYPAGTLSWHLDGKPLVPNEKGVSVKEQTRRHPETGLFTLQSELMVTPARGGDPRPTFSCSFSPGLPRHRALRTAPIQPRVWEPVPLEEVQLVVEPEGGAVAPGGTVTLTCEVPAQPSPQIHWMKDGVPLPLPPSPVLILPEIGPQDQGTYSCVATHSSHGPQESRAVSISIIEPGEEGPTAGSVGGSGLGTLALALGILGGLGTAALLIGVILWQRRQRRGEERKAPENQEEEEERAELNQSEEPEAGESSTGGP
structure (smiles),measurement,setting,value
CC[C@H](C)N(CC(=O)N(CC(=O)N(CC(=O)N(CC(=O)N(CC(=O)N(CC(=O)N(CC(N)=O)[C@@H](C)c1ccccc1)[C@@H](C)c1ccccc1)[C@@H](C)CC)[C@@H](C)c1ccccc1)[C@@H](C)c1ccccc1)[C@@H](C)CC)C(=O)CNCCCCN [JPT1a] (H-[Nlys][N(1S-Me-propyl)Gly][N(1S-Me-propyl)Gly][Nspe][Nspe][N(1S-Me-propyl)Gly][Nspe][Nspe]-NH2),reversal in LPS-induced RAGE expression,RAGE [1]; 5 μM added after 48 h of 2 ng/mL LPS,significant reversal
same,reversal in LPS-induced RAGE expression,RAGE [1]; 25 μM added after 48 h of 2 ng/mL LPS,significant reversal
same,Kd,"RAGE [2]; n=3, read-out: Kd, plot of specific binding (one epitope)",79 ± 28.4 nM
same,Kd,"RAGE [2]; n=4, read-out: binding affinity for RAGE (Scatchard plot)",139 nM
same,levels of LPS-induced IL-8,IL-8; peptoid 10 μM with 2 ng/mL LPS,significantly reduces
same,LPS-induced production of IL-8,IL-8; peptoid 50 μM with 2 ng/mL LPS,significantly attenuates
same,Kd,RAGE [3],51.8 ± 7.3 nM

# — patent publication US11197908B2, “Peptoids and methods for attenuating inflammatory response” (THE BOARD OF TRUSTEES OF THE UNIVERSITY OF ARKANSAS, priority 2018, dated 2021)
